Patent US20110294874A1, “DIAGNOSIS AND THERAPY OF ORGAN DYSFUNCTION USING SPHINGANINE-1-PHOSPHATE” (The Trustees of Columbia University in the City of New York, priority 2008, published 2011)
Several values for one entry are separate records, joined by “and”; a condition that tells them apart may be missing. Equal values may be shown once.

Columns and labels:
[1] = tested on: C57BL/6 mice subjected to liver IR; assay: Kidney H&E histology after liver IR; assay type: in vivo, mouse; conditions: pre-treatment prior to Sg1P
Description: Liver IR-induced AKI in mice shared similar histological changes observed in human AKI associated with liver failure, as observed in H&E slides of kidney sections taken from the mice (see FIG. 3). Multifocal acute tubular injury including individual cell necrosis involving the juxtamedullary proximal tubules of the S3 segment was observed. […] Endothelial apoptosis of peritubular capillaries was also visible in H&E sections as linear arrays of apoptotic bodies corresponding to the interstitial capillary lining endothelium. […] The number of glomeruli with detectable juxtaglomerular apparatus and the number of cells per juxtaglomerular apparatus were both increased after liver IR, indicating hyperplasia of the juxtaglomerular apparatus. […] Liver IR produced large necrotic areas of liver tissue. The average percentage of necrotic areas in liver samples taken from liver IR mice were 92%±2% (n=6), while no necrosis was found in sham-operated mice. Livers were also analyzed for the degree of hepatocellular damage.

[2] = tested on: C57BL/6 mice subjected to liver IR; assay: Liver H&E histology after liver IR (percent necrosis, Suzuki score); assay type: in vivo, mouse; conditions: pre-treatment prior to Sg1P treatment
Description: Mice were anesthetized with intraperitoneal pentobarbital (50 mg/kg or to effect). Mice were placed under a heating lamp and on a 37° C. heating pad. After a midline laparotomy and intraperitoneal application of 20 U heparin, left lateral and median lobes of the liver were subjected to ischemia with a microaneurysm clip occluding the hepatic triad above the bifurcation. This method of partial hepatic ischemia results in a segmental (˜70%) hepatic ischemia but spares the right lobe of the liver and prevents mesenteric venous congestion by allowing portal decompression throughout the right and caudate lobes of the liver. The liver was then repositioned in the peritoneal cavity in its original location for 60 minutes. The liver was kept moist with gauze soaked in 0.9% normal saline. The body temperature was monitored by an infrared temperature sensor (Linear Laboratories, Fremont, Calif.) every 10 min. and maintained at 37° C. using a heating lamp and a heating pad. After 60 minutes, the liver was reperfused and the wound closed. Sham-operated mice were subjected to laparotomy and identical liver manipulations without vascular occlusion. Two, 4 and 24 hr after reperfusion, plasma was collected for the measurement of alanine aminotransferase (ALT), a common indicator of liver damage, as well as creatinine (Cr) a common indicator of kidney damage. The liver tissue subjected to IR was collected to measure percent liver necrosis (2, 4 and 24 hr after IR), neutrophil infiltration (with immunohistochemistry, 4 and 24 hr after IR), apoptosis (with terminal deoxynucleotidyl transferase-mediated dUTP nick end labeling staining, caspase 3 immunoblotting and DNA laddering, 24 hr after IR), and inflammation by RT-PCR for pro-inflammatory mRNAs (4 hr after IR).
Livers were also analyzed for the degree of hepatocellular damage using the Suzuki's criteria (Suzuki et al., Transplantation 1993, Vol. 55, pp. 1265-1272). To obtain a Suzuki score, 3 liver injury indices are graded: sinusoidal congestion (0-4), hepatocyte necrosis (0-4), and ballooning degeneration (0-4) are graded for a total score of 0-12. No necrosis, congestion, or centrilobular ballooning is given a score of 0 whereas severe congestion/ballooning and >60% lobular necrosis is given a value of 4.

[3] = tested on: C57BL/6 mice subjected to liver IR; assay: Murine model of liver ischemia reperfusion (hepatic IR): plasma ALT and creatinine; assay type: in vivo, mouse; conditions: for Serum ALT (mean) / Serum creatinine (mean): C57BL/6 mice, 60 min liver ischemia, 24 h reperfusion; for Effect of pretreatment alone on kidney injury resulting from liver IR / Effect of pretreatment alone on liver injury resulting from liver IR: antagonist alone, no Sg1P; for Effect of pre-treatment on Sg1P-mediated renal and hepatic protection after liver IR: given prior to Sg1P treatment, serum creatinine and ALT
S1P1 and S1P3 receptors = conditions: cited from earlier work
[4] = tested on: SK-deficient mice subjected to liver IR; assay: Liver IR in SK-deficient mice (subtype not stated); assay type: in vivo, mouse; conditions: liver IR (data not shown)
Description: (§1) The effects of administering Sg1P (0.1 mg/kg i.v. and 0.2 mg/kg s.c.) on liver and renal injury were also determined in the KO mice and are also shown in Tables 9 and 10 below.

[5] = tested on: SK1 KO mice subjected to liver IR; assay: Liver IR in SK1 KO mice: plasma ALT and creatinine; assay type: in vivo, mouse; conditions: SK1KO, hepatic IR 24 h
Description: as §1

[6] = mouse, in vivo
[7] = tested on: SK2 KO mice subjected to liver IR; assay: Liver IR in SK2 KO mice: plasma ALT and creatinine; assay type: in vivo, mouse; conditions: SK2KO, hepatic IR 24 h
Description: as §1

[8] = 0.1 mg/kg i.v. and 0.2 mg/kg s.c.

Compound: CCCCCCc1cccc(NC(=O)[C@H](N)CCP(=O)(O)O)c1 [W146]
- Effect of pre-treatment on protective effects of Sg1P on renal histology [1]: reduced the protective effects
- Necrotic areas in the liver after IR [2]: increased significantly
- Inhibition of Sg1P-mediated renal and hepatic protection ([3]; 0.1 mg/kg (i.p.) 10 minutes prior to liver ischemia): completely inhibit
- Serum ALT (mean) [3]: 24452±1760 U/L and 24451 U/L
- Serum creatinine (mean) [3]: 1.6 ± 0.2 mg/dL and 1.55 mg/dL
- Effect of pretreatment alone on kidney injury resulting from liver IR [3]: exacerbated kidney injury
- Effect of pretreatment alone on liver injury resulting from liver IR [3]: exacerbated liver injury
- Inhibition of Sg1P's protective effects against liver and kidney injury ([3]; pre-treatment 0.01-0.2 mg/kg): dose-dependent

Compound: pertussis toxin
- Effect of pre-treatment on protective effects of Sg1P on renal histology [1]: reduced the protective effects
- Necrotic areas in the liver after IR [2]: increased significantly
- Effect of pre-treatment on Sg1P-mediated renal and hepatic protection after liver IR [3]: prevented

Compound: CCCCCCCCc1ccc(CCC(N)(CO)CO)cc1 [FTY720]
- Serum creatinine (mean) [3]: 0.65 ± 0.06 mg/dL
- serum ALT ([3]; liver IR, 1 mg/kg i.p. 30 min. prior to liver ischemia and 5 min prior to reperfusion, in U/L): 6435±944

Compound: CC(=N)NCCC[C@H](N)C(=O)O [L-NIO]
- Effect of pre-treatment on Sg1P-mediated renal and hepatic protection after liver IR [3]: had no effects

Compound: CCCCCCCCc1cccc(NC(=O)[C@H](N)COP(=O)(O)O)c1 [VPC]
- Serum ALT (mean) [3]: 18253 U/L
- Serum creatinine (mean) [3]: 1.61 mg/dL
- Serum ALT (mean) ([3]; listed as VPC 23019): 18253±1709 U/L
- Effect of pretreatment alone on kidney injury resulting from liver IR [3]: exacerbated kidney injury
- Effect of pretreatment alone on liver injury resulting from liver IR [3]: exacerbated liver injury
- Selectivity for S1P1 (over S1P3) (S1P1 and S1P3 receptors): 50 fold

Compound: COc1cccc(-c2cc(=O)c3ccccc3o2)c1N [PD98059]
- Effect of pre-treatment on protective effects of Sg1P on renal histology [1]: reduced the protective effects
- Necrotic areas in the liver after IR [2]: increased significantly
- Effect of pre-treatment on Sg1P-mediated renal and hepatic protection after liver IR [3]: prevented

Compound: FC(F)(F)c1cccc(-c2noc(-c3cc(-c4ccccc4)c(C(F)(F)F)s3)n2)c1 [SEW2871]
- Serum ALT (mean) [3]: 6502±552 U/L
- Serum creatinine (mean) [3]: 0.63 ± 0.08 mg/dL

Compound: CCCCCCCCCCCCCCC[C@@H](O)[C@@H](N)CO [Sphinganine, sphinganine]
- Kidney protection [4]: failed to provide kidney protection
- Protective effect on the liver [4]: failed to provide protective effect on the liver
- Serum ALT (mean) [3]: 7170 U/L
- Serum creatinine (mean) [3]: 0.58 mg/dL
- Serum ALT (mean) ([3]; listed as sphinganine): 7170±1282 U/L
- Serum creatinine (mean) ([3]; listed as sphinganine): 0.58 ± 0.05 mg/dL

Compound: CCCCCCCCCCCCC/C=C/[C@@H](O)[C@@H](N)CO [Sphingosine, sphingosine]
- Serum ALT (mean) [3]: 9269 U/L
- Serum creatinine (mean) [3]: 0.76 mg/dL
- Serum ALT (mean) ([3]; listed as sphingosine): 9269±583 U/L
- Serum creatinine (mean) ([3]; listed as sphingosine): 0.76 ± 0.06 mg/dL

Compound: CCCCCCCCCCCCC/C=C/[C@@H](O)[C@@H](N)COP(=O)(O)O [S1P, sphingosine-1-phosphate]
- Creatinine (mean) [5]: 1.035 mg/dL
- ALT (mean) [5, 8]: 17416.67 U/L
- Rescue of serum Sg1P levels [6]: completely rescued
- Creatinine (mean) [7]: 0.880 mg/dL
- ALT (mean) [7, 8]: 13165.08 U/L
- Serum ALT (mean) [3]: 9178±1822 U/L and 9178 U/L
- Serum creatinine (mean) [3]: 0.72 ± 0.13 mg/dL and 0.72 mg/dL

Compound: CCCCCCCCCCCC1N[C@H](C(=O)O)CS1 (some centres unmarked) [BML-241]
- Effect of pre-treatment on Sg1P-mediated renal and hepatic protection after liver IR [3]: did not block

Compound: Cc1nn(C)c2nc(NNC(=O)Nc3cc(Cl)nc(Cl)c3)cc(C(C)C)c12 [JTE-013]
- Effect of pre-treatment on Sg1P-mediated renal and hepatic protection after liver IR [3]: did not block
